Here are results for 17 compounds from ChEMBL document CHEMBL1132009, “Inhibition of MMP-1 and MMP-13 with phosphinic acids that exploit binding in the S2 pocket” (Bioorg Med Chem Lett, 1999).

pIC50, pKi: −log10 of the molar value.

In one data set the target is T1, Interstitial collagenase (Homo sapiens, UniProt P03956).
T1 sequence (P03956 whole entry): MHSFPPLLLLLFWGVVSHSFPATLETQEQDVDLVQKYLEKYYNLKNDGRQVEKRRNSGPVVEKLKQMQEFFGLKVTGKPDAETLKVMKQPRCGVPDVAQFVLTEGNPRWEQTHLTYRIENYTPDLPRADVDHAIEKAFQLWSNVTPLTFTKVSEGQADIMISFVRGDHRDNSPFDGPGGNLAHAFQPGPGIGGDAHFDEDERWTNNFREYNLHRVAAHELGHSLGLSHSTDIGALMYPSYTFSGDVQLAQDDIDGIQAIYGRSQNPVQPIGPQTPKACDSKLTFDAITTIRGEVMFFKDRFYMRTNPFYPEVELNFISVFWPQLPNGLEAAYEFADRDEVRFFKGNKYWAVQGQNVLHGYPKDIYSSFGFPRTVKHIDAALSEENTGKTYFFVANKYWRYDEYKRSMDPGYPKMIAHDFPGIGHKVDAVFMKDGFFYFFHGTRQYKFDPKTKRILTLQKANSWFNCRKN
Briefly: Inhibitory activity against recombinant matrix metalloprotease-1 (MMP-1).

The target of the next data set is Collagenase 3 (Homo sapiens, UniProt P45452). Briefly: Inhibition of recombinant Matrix metalloprotease-13 (MMP-13).
The target in data set [1] is 72 kDa type IV collagenase (Homo sapiens, UniProt P08253). Briefly: Inhibition of recombinant matrix metalloprotease-2 (MMP-2).
Chain of 72 kDa type IV collagenase (P08253 whole entry): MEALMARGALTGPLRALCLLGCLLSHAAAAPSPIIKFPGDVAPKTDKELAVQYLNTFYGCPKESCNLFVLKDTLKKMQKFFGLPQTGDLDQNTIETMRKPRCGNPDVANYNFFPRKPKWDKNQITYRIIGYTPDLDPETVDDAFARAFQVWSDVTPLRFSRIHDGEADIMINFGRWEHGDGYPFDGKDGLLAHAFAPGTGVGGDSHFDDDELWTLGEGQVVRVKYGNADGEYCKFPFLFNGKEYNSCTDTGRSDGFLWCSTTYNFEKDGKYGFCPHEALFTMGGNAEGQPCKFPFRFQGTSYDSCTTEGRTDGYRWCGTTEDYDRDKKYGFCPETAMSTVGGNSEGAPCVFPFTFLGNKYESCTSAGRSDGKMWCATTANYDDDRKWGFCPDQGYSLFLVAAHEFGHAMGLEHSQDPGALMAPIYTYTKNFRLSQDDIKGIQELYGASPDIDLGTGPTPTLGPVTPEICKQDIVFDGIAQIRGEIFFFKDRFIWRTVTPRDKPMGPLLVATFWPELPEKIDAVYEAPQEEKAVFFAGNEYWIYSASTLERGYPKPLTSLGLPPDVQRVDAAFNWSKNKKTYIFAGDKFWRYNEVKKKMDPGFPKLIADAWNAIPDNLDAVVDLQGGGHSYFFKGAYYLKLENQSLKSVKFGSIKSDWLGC
Data set [2] is described as follows: Steady state volume of distribution after iv administration to rats. The class given is ADME, organism-based. Conditions: rat, in vivo.
The target in another data set is Stromelysin-1 (Homo sapiens, UniProt P08254). Briefly: Inhibition of recombinant matrix metalloprotease-3 (MMP-3).
Chain of Stromelysin-1 (P08254 whole entry): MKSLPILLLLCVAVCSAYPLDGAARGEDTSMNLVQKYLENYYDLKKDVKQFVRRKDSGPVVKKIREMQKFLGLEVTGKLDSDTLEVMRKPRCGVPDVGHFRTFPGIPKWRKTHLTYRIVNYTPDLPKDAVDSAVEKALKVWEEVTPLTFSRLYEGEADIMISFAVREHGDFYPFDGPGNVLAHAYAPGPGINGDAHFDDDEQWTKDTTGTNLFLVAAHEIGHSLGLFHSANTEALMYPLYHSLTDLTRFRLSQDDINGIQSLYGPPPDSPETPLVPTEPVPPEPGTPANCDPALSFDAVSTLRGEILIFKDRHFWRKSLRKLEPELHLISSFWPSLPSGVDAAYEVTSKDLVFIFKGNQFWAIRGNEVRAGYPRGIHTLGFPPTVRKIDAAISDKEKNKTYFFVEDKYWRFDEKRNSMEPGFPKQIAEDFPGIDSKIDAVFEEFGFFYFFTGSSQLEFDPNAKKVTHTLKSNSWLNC
Data set [3] is described as follows: Clearance after iv administration to rats. Format: ADME, organism-based. Conditions: rat, in vivo.
A short description of data set [4]: Terminal half-life after iv administration to rats. The class given is ADME, organism-based. Particulars: rat, in vivo.
Data set [5] is described as follows: Selectivity ratio for MMP-2 over MMP-3.

The pIC50 is −log10 of the IC50, conventionally taken in molar units. Regarding `CNC(=O)[C@H](NC(=O)C(CCC(C)C)CP(=O)(O)Cc1ccc(Cc2ccccc2)cc1)C(C)(C)C` (some centres undefined), the negative-log IC50 (pIC50) is 5.46 at Interstitial collagenase and less than 5.52 on Collagenase 3.
For `CC(C)CC(CP(=O)(O)Cc1ccc(Cc2ccccc2)cc1)C(=O)NCC(C)(C)C` (centres undefined), the pIC50 on Interstitial collagenase is 4.70.
Same read-out and setting: under `CNC(=O)[C@@H](C)NC(=O)C(CC(C)C)CP(=O)(O)Cc1ccc(Cc2ccccc2)cc1` (some centres undefined) stands 5.64.
What is called pKi is the Ki on a negative log10 scale, so that one unit is a factor of ten. Regarding `CC(C)C[C@@H](NC(=O)[C@H](CCc1ccccc1)CP(=O)(O)CCCCN1C(=O)c2ccccc2C1=O)C(=O)Nc1ccccc1`, the negative-log Ki (pKi) in data set [1] was 7.70.
`CNC(=O)[C@H](NC(=O)C(CCCCOc1ccccc1)CP(=O)(O)Cc1ccc(Cc2ccccc2)cc1)C(C)(C)C` (some centres undefined): the negative-log IC50 (pIC50) is less than 4.52 on Interstitial collagenase and 7.52 at Collagenase 3.
In the case of `CNC(=O)[C@@H](Cc1ccc(OC)cc1)NC(=O)C(CC(C)C)CP(=O)(O)Cc1ccc(C(=O)NCc2ccccc2)cc1` (some centres undefined), the negative logarithm of the IC50 (pIC50) at Interstitial collagenase is 5.68.
In general, Vd refers to the apparent volume that relates the amount in the body to the concentration in plasma or blood. Broadly, the clearance is the rate of elimination divided by the concentration. A higher clearance goes with a high capacity for elimination. What is called half-life is the time needed for the level to fall by half in the phase considered. Consider `CNC(=O)[C@H](NC(=O)C(CCc1ccccc1)CP(=O)(O)Cc1ccc(Cc2ccccc2)cc1)C(C)(C)C` (some centres undefined), for which the Vd in data set [2] was 0.2 L/kg. Besides, the pIC50 was 5.92 at Stromelysin-1, 6.16 on Interstitial collagenase and 7.85 at Collagenase 3. The compound further registered a clearance in data set [3] of 12 mL/min/kg. This compound showed a half-life in data set [4] of 2.3 h.
As to `CNC(=O)[C@H](NC(=O)C(CC1CC1)CP(=O)(O)Cc1ccc(Cc2ccccc2)cc1)C(C)(C)C` (some centres undefined), the pIC50 on Interstitial collagenase was 6.70; at Collagenase 3, 5.96.
Take `CC(C)CC(CP(=O)(O)Cc1ccc(Cc2ccccc2)cc1)C(=O)NC(CO)C(C)(C)C` (centres undefined): the pIC50 on Interstitial collagenase is 4.74.
In the case of `CNC(=O)[C@H](NC(=O)C(CCC(F)(F)F)CP(=O)(O)Cc1ccc(Cc2ccccc2)cc1)C(C)(C)C` (some centres undefined), the values for the negative-log IC50 (pIC50) on Interstitial collagenase and at Collagenase 3 were 7.35 and 5.80, respectively.
With `CNC(=O)[C@H](NC(=O)C(CC(C)C)CP(=O)(O)Cc1ccc(C(=O)c2ccccc2)cc1)C(C)(C)C` (some centres undefined), at Interstitial collagenase, the negative logarithm of the IC50 (pIC50) was 6.12.
As to `CNC(=O)[C@H](NC(=O)C(CCc1ccccc1)CP(=O)(O)Cc1ccccc1)C(C)(C)C` (some centres undefined), the pIC50 at Stromelysin-1 is 5.57; at Interstitial collagenase, 4.66; at Collagenase 3 it was 6.52.
In the case of `CNC(=O)[C@H](NC(=O)C(CC1CCC1)CP(=O)(O)Cc1ccc(Cc2ccccc2)cc1)C(C)(C)C` (some centres undefined), the negative logarithm of the IC50 (pIC50) on Interstitial collagenase was 6.74; on Collagenase 3, 6.96.
In the same order, the values of `CNC(=O)[C@H](NC(=O)C(CC(C)C)CP(=O)(O)Cc1ccc(Cc2ccccc2)cc1)C(C)(C)C` (some centres undefined) are 7.22 and 6.74.
For `CNC(=O)[C@H](NC(=O)C(CC1CCCCC1)CP(=O)(O)Cc1ccc(Cc2ccccc2)cc1)C(C)(C)C` (some centres undefined), in that order: 5.74 and 5.80.
In the case of `CNC(=O)[C@H](NC(=O)C(CCC1CCCCC1)CP(=O)(O)Cc1ccc(Cc2ccccc2)cc1)C(C)(C)C` (some centres undefined), the results for the negative logarithm of the IC50 (pIC50) at Interstitial collagenase and on Collagenase 3 were 4.72 and 5.70, respectively.
As for `CC(=O)N1CCC[C@H]1C(=O)NCCCCP(=O)(O)C[C@@H](CCc1ccccc1)C(=O)N[C@H](CC(C)C)C(=O)Nc1ccccc1`, the negative-log Ki (pKi) on Stromelysin-1 is 7.21; in data set [1], 8.21. Further, the Selectivity in data set [5] was 10.
